Data as given in ChEMBL document CHEMBL3785006, “Discovery of 2-Indole-acylsulfonamide Myeloid Cell Leukemia 1 (Mcl-1) Inhibitors Using Fragment-Based Methods” (J Med Chem, 2016).

Key:
[1] = target: T1, Induced myeloid leukemia cell differentiation protein Mcl-1 (Homo sapiens, UniProt Q07820)
Bcl-2-like protein 1 = Bcl-2-like protein 1 (Homo sapiens, UniProt Q07817)
[2] = target: T1, Induced myeloid leukemia cell differentiation protein Mcl-1; remark: listed apart in the source
[3] = target: T1, Induced myeloid leukemia cell differentiation protein Mcl-1; remark: listed apart in the source

Chain of Bcl-2-like protein 1 (Q07817 whole entry): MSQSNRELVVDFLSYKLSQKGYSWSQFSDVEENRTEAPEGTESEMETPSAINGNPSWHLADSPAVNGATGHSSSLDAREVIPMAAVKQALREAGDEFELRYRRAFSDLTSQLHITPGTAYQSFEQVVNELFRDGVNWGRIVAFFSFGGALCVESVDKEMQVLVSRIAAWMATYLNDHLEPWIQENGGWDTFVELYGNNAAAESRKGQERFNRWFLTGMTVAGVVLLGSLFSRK
T1 sequence (Q07820 whole entry): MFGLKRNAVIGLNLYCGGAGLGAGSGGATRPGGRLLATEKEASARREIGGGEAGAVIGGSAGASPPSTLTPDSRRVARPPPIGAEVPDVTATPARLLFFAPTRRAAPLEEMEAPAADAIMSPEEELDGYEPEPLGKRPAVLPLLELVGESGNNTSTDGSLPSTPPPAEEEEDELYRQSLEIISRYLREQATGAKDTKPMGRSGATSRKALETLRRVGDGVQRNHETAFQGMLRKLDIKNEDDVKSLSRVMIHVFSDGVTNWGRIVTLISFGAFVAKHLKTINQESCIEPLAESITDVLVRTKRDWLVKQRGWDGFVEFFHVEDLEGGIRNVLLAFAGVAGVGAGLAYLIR

Structure (SMILES)	Ki [1] [nM]	further results
Cc1cc(OCCCc2c(C(=O)NS(=O)(=O)CCNC(=O)C3CCCCC3)[nH]c3cc(Cl)ccc23)cc(C)c1Cl	55	
Cc1cc(OCCCc2c(C(=O)NS(=O)(=O)c3cccc(CNC(=O)CC(C)C)c3)[nH]c3c(-c4c(C)nn(C)c4C)c(Cl)ccc23)cc(C)c1Cl	< 10	Ki (Bcl-2-like protein 1): 1570 nM; Ki [2]: 5.6 nM; Ki [3]: 92 nM
Cc1cc(OCCCc2c(C(=O)NS(=O)(=O)CCNC(=O)c3cccc(C(F)(F)F)c3)[nH]c3cc(Cl)ccc23)cc(C)c1Cl	79	
Cc1cc(OCCCc2c(C(=O)NS(=O)(=O)CCNC(=O)CC(C)C)[nH]c3cc(Cl)ccc23)cc(C)c1Cl	10	
Cc1cc(OCCCc2c(C(=O)NS(=O)(=O)c3ccc(C(=O)O)o3)[nH]c3c(-c4c(C)nn(C)c4C)c(Cl)ccc23)cc(C)c1Cl		IC50 [2]: 2.1 nM; Ki [2]: 0.78 nM
Cc1cc(OCCCc2c(C(=O)NS(=O)(=O)c3cccc(CNC(=O)c4cccc(C(F)(F)F)c4)c3)[nH]c3c(-c4c(C)nn(C)c4C)c(Cl)ccc23)cc(C)c1Cl	< 10	Ki (Bcl-2-like protein 1): 12900 nM; Ki [2]: 7 nM; Ki [3]: 78 nM
Cc1cc(OCCCc2c(C(=O)NS(=O)(=O)CCNS(=O)(=O)C3CCCCC3)[nH]c3ccccc23)cc(C)c1Cl	251	
Cc1cc(OCCCc2c(C(=O)NS(=O)(=O)c3cccc(CNC(=O)C(C)C)c3)[nH]c3c(-c4c(C)nn(C)c4C)c(Cl)ccc23)cc(C)c1Cl	< 10	Ki (Bcl-2-like protein 1): > 50000 nM; Ki [2]: 16 nM; Ki [3]: 54 nM
Cc1cc(OCCCc2c(C(=O)NS(=O)(=O)CCNC(=O)c3ccc(F)cc3)[nH]c3ccccc23)cc(C)c1Cl	117	
Cc1cc(OCCCc2c(C(=O)NS(=O)(=O)CCNC(=O)c3ccc4[nH]ccc4c3)[nH]c3ccccc23)cc(C)c1Cl	269	
Cc1cc(OCCCc2c(C(=O)NS(=O)(=O)CCNC(=O)C(C)C)[nH]c3cc(Cl)ccc23)cc(C)c1Cl	66	
Cc1cc(OCCCc2c(C(=O)NS(=O)(=O)c3ccnc(NCCC(C)C)c3)[nH]c3c(-c4c(C)nn(C)c4C)c(Cl)ccc23)cc(C)c1Cl	< 10	Ki (Bcl-2-like protein 1): 4470 nM; Ki [2]: 5.6 nM; Ki [3]: 179 nM
Cc1cc(OCCCc2c(C(=O)NS(=O)(=O)CCNC(=O)c3ccc4cc[nH]c4c3)[nH]c3ccccc23)cc(C)c1Cl	278	
CC(=O)NCCS(=O)(=O)NC(=O)c1[nH]c2cc(Cl)ccc2c1CCCOc1cc(C)c(Cl)c(C)c1	209	
CC(=O)NCCS(=O)(=O)NC(=O)c1[nH]c2ccccc2c1CCCOc1cc(C)c(Cl)c(C)c1	656	
Cc1cc(OCCCc2c(C(=O)NS(=O)(=O)CCNC(=O)c3cccn3-c3ccccc3)[nH]c3ccccc23)cc(C)c1Cl	139	
Cc1ccncc1-c1cccc2c(CCCOc3cc(C)c(Cl)c(C)c3)c(C(=O)NS(=O)(=O)c3ccccc3)[nH]c12	36	
Cc1cc(OCCCc2c(C(=O)NS(=O)(=O)c3ccc(C(=O)NCc4ccncc4)o3)[nH]c3c(-c4c(C)nn(C)c4C)c(Cl)ccc23)cc(C)c1Cl	< 10	Ki (Bcl-2-like protein 1): > 50000 nM; Ki [2]: 8.5 nM; Ki [3]: 20 nM
Cc1cc(OCCCc2c(C(=O)NS(C)(=O)=O)[nH]c3ccccc23)cc(C)c1Cl	655	

Structure (SMILES)	Ki [1] [nM]	further results
Cc1cc(OCCCc2c(C(=O)NS(=O)(=O)CCNC(=O)c3ccco3)[nH]c3cc(Cl)ccc23)cc(C)c1Cl	53	
Cc1cc(OCCCc2c(C(=O)NS(=O)(=O)c3ccccc3)[nH]c3c(-c4c(C)n[nH]c4C)cccc23)cc(C)c1Cl	< 10	Ki [3]: 517 nM
Cc1cc(OCCCc2c(C(=O)NS(=O)(=O)c3ccccc3)[nH]c3c(-c4c(C)n[nH]c4C)c(Cl)ccc23)cc(C)c1Cl	< 10	Ki [3]: 147 nM
CCC(=O)NCCS(=O)(=O)NC(=O)c1[nH]c2cc(Cl)ccc2c1CCCOc1cc(C)c(Cl)c(C)c1	87	
Cc1cc(OCCCc2c(C(=O)NS(=O)(=O)CCNC(=O)[C@H]3Cc4ccccc4N3)[nH]c3cc(Cl)ccc23)cc(C)c1Cl	28	
Cc1cc(OCCCc2c(C(=O)NS(=O)(=O)c3ccc(C(=O)NCc4ccccc4)o3)[nH]c3c(-c4c(C)nn(C)c4C)c(Cl)ccc23)cc(C)c1Cl	< 10	Ki (Bcl-2-like protein 1): > 50000 nM; Ki [2]: 2.4 nM; Ki [3]: 84 nM
Cc1cc(OCCCc2c(C(=O)NS(=O)(=O)CCNC(=O)c3cccc(F)c3)[nH]c3ccccc23)cc(C)c1Cl	100	
Cc1cc(OCCCc2c(C(=O)NS(=O)(=O)c3cccc(CNC(=O)c4ccoc4)c3)[nH]c3c(-c4c(C)nn(C)c4C)c(Cl)ccc23)cc(C)c1Cl	< 10	Ki (Bcl-2-like protein 1): 1400 nM; Ki [2]: 2.9 nM; Ki [3]: 69 nM
Cc1cc(OCCCc2c(C(=O)NS(=O)(=O)CCNC(=O)c3cc4ccccc4o3)[nH]c3ccccc23)cc(C)c1Cl	311	
Cc1cc(OCCCc2c(C(=O)NS(=O)(=O)CCOc3ccccc3)[nH]c3ccccc23)cc(C)c1Cl	322	
Cc1cc(OCCCc2c(C(=O)NS(=O)(=O)c3ccccc3)[nH]c3c(-c4c(C)nn(C)c4C)c(Cl)ccc23)cc(C)c1Cl	< 10	Ki [2]: 17 nM; Ki [3]: 64 nM
Cc1cc(OCCCc2c(C(=O)NS(C)(=O)=O)[nH]c3cc(Cl)ccc23)cc(C)c1Cl	209	
Cc1cc(OCCCc2c(C(=O)NS(=O)(=O)CCNC(=O)c3ccc(C(F)(F)F)cc3)[nH]c3cc(Cl)ccc23)cc(C)c1Cl	119	
Cc1cc(OCCCc2c(C(=O)NS(=O)(=O)c3ccncc3)[nH]c3ccccc23)cc(C)c1Cl	335	
Cc1cc(OCCCc2c(C(=O)NS(=O)(=O)c3cccc(CNC(=O)c4cccn4C)c3)[nH]c3c(-c4c(C)nn(C)c4C)c(Cl)ccc23)cc(C)c1Cl	< 10	Ki (Bcl-2-like protein 1): > 50000 nM; Ki [2]: 10 nM; Ki [3]: 91 nM
Cc1cc(OCCCc2c(C(=O)NS(=O)(=O)c3ccccc3)[nH]c3cc(Cl)ccc23)cc(C)c1Cl	91	
O=C(NS(=O)(=O)CCNC(=O)C1CCCCC1)c1[nH]c2cc(Cl)ccc2c1CCCOc1cccc2ccccc12	374	
Cc1cc(OCCCc2c(C(=O)NS(=O)(=O)c3cccc(CNC(=O)c4ccccc4C(F)(F)F)c3)[nH]c3c(-c4c(C)nn(C)c4C)c(Cl)ccc23)cc(C)c1Cl	< 10	Ki (Bcl-2-like protein 1): 4470 nM; Ki [2]: 5 nM; Ki [3]: 80 nM
Cc1cc(OCCCc2c(C(=O)NS(=O)(=O)CCNC(=O)c3ccc[nH]3)[nH]c3cc(Cl)ccc23)cc(C)c1Cl	782	

Further lines, with some results ahead:

Ki [1] [nM]	Structure (SMILES)	further results
308	Cc1cc(OCCCc2c(C(=O)NS(=O)(=O)CCNC(=O)c3cc(-c4ccccc4O)n[nH]3)[nH]c3cc(Cl)ccc23)cc(C)c1Cl	
< 10	Cc1cc(OCCCc2c(C(=O)NS(=O)(=O)c3ccnc(N(C)CCc4ccccc4)c3)[nH]c3c(-c4c(C)nn(C)c4C)c(Cl)ccc23)cc(C)c1Cl	Ki (Bcl-2-like protein 1): 943 nM; Ki [2]: 2.5 nM; Ki [3]: 226 nM
< 10	Cc1cc(OCCCc2c(C(=O)NS(=O)(=O)c3ccnc(NC4Cc5ccccc5C4)c3)[nH]c3c(-c4c(C)nn(C)c4C)c(Cl)ccc23)cc(C)c1Cl	Ki (Bcl-2-like protein 1): 997 nM; Ki [2]: 1 nM; Ki [3]: 61 nM
193	Cc1cc(OCCCc2c(C(=O)NS(=O)(=O)CCNC(=O)[C@@H]3Cc4ccccc4N3)[nH]c3ccccc23)cc(C)c1Cl	
19	Cc1cc(OCCCc2c(C(=O)NS(=O)(=O)CCNC(=O)c3ccoc3)[nH]c3cc(Cl)ccc23)cc(C)c1Cl	
148	Cc1cc(OCCCc2c(C(=O)NS(=O)(=O)CCNC(=O)c3cccn3Cc3ccccc3)[nH]c3ccccc23)cc(C)c1Cl	
231	CS(=O)(=O)NC(=O)c1[nH]c2cc(Cl)ccc2c1CCCOc1cccc2ccccc12	
46	Cc1cc(OCCCc2c(C(=O)NS(=O)(=O)CCNC(=O)[C@@H]3Cc4ccccc4N3)[nH]c3cc(Cl)ccc23)cc(C)c1Cl	
14	Cc1cc(OCCCc2c(C(=O)NS(=O)(=O)c3ccccc3)[nH]c3c(-c4cccnc4C)cccc23)cc(C)c1Cl	
430	Cc1cc(OCCCc2c(C(=O)NS(=O)(=O)CCNC(=O)c3ccccc3)[nH]c3ccccc23)cc(C)c1Cl	
1100	Cc1cc(OCCCc2c(C(=O)NS(=O)(=O)CCNC(=O)CC3CCCCC3)[nH]c3ccccc23)cc(C)c1Cl	
298	Cc1cc(OCCCc2c(C(=O)NS(=O)(=O)CCNC(=O)Cc3cn(C)c4ccccc34)[nH]c3ccccc23)cc(C)c1Cl	
1020	Cc1cc(OCCCc2c(C(=O)NS(=O)(=O)CCCNC3CCCCC3)[nH]c3ccccc23)cc(C)c1Cl	
336	Cc1cc(OCCCc2c(C(=O)NS(=O)(=O)CCNC(=O)c3ccccc3F)[nH]c3ccccc23)cc(C)c1Cl	
< 10	Cc1cc(OCCCc2c(C(=O)NS(=O)(=O)c3ccnc(NCCc4ccccc4)c3)[nH]c3c(-c4c(C)nn(C)c4C)c(Cl)ccc23)cc(C)c1Cl	Ki (Bcl-2-like protein 1): 1110 nM; Ki [2]: 1.2 nM; Ki [3]: 78 nM
< 10	Cc1cc(OCCCc2c(C(=O)NS(=O)(=O)c3ccccc3)[nH]c3c(-c4cccnc4C)c(Cl)ccc23)cc(C)c1Cl	Ki [2]: 18 nM; Ki [3]: 146 nM
118	Cc1cc(OCCCc2c(C(=O)NS(=O)(=O)CCNC(=O)C3CCCCC3)[nH]c3ccccc23)cc(C)c1Cl	
116	Cc1cc(OCCCc2c(C(=O)NS(=O)(=O)CCNC(=O)C(F)(F)F)[nH]c3cc(Cl)ccc23)cc(C)c1Cl	
< 10	CC(=O)NCc1cccc(S(=O)(=O)NC(=O)c2[nH]c3c(-c4c(C)nn(C)c4C)c(Cl)ccc3c2CCCOc2cc(C)c(Cl)c(C)c2)c1	Ki (Bcl-2-like protein 1): 9070 nM; Ki [2]: 11.1 nM; Ki [3]: 42 nM
18	Cc1cc(OCCCc2c(C(=O)NS(=O)(=O)CCNC(=O)c3ccccc3C(F)(F)F)[nH]c3cc(Cl)ccc23)cc(C)c1Cl	
90	Cc1cc(OCCCc2c(C(=O)NS(=O)(=O)CCNC(=O)c3cccn3C)[nH]c3ccccc23)cc(C)c1Cl	
16	CCC(CC)C(=O)NCCS(=O)(=O)NC(=O)c1[nH]c2cc(Cl)ccc2c1CCCOc1cc(C)c(Cl)c(C)c1	
116	Cc1cc(OCCCc2c(C(=O)NS(=O)(=O)c3ccco3)[nH]c3cc(Cl)ccc23)cc(C)c1Cl	
202	Cc1cc(OCCCc2c(C(=O)NS(=O)(=O)c3ccccc3)[nH]c3c(-c4cccnc4)cccc23)cc(C)c1Cl	
432	Cc1cc(OCCCc2c(C(=O)NS(=O)(=O)CCNC(=O)c3cn(C)c4ccccc34)[nH]c3ccccc23)cc(C)c1Cl	
